Results reported in patent US11226337B2, “Chemoproteomic profiling of protein electrophilic and oxidative post-translational modifications” (Zenagem, LLC, priority 2017, dated 2022).

How the values were obtained:
Experiment in all cases: SILAC RP-ABPP
Format in all cases: cell-based
[1] = target: T1, SELENBP1 Seleniumbinding protein 1 (Q13228) (Homo sapiens, UniProt Q13228); details: SILAC H/L, MDA-MB-231
T1 construct: endogenous in cells; host or cells: HEK293T or MDA-MB-231
How it was run: (§1)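 Heavy SILAC HEK293T or MDA-MB-231 cells were treated with a clickable hydrazine probe; light cells received the non-clickable analogue (enrichment) or the probe plus 10-fold excess non-clickable competitor (competition). Mixed proteomes underwent CuAAC with 100 μM biotin-azide for 1 h. Heavy:light ratios were taken as median peptide ratios (≥3 peptides) averaged over ≥3 replicates.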

[2] = target: T2, KDM1A Lysinespecific histone demethylase 1A (O60341) (Homo sapiens, UniProt O60341); details: SILAC H/L, HEK293T
T2 construct: In Situ Labelling of Cells with Hydrazine Probes for MS Experiments; endogenous in cells; host or cells: HEK293T and/or MDA-MB-231
How it was run: as §1

[3] = target: T3, TTC38 Tetratricopeptide repeat protein 38 (Q5R3I4) (Homo sapiens, UniProt Q5R3I4); details: SILAC H/L, HEK293T
T3 construct: In Situ Labelling of Cells with Hydrazine Probes for MS Experiments; endogenous in cells; host or cells: HEK293T and/or MDA-MB-231
T3 sequence (Q5R3I4 whole entry): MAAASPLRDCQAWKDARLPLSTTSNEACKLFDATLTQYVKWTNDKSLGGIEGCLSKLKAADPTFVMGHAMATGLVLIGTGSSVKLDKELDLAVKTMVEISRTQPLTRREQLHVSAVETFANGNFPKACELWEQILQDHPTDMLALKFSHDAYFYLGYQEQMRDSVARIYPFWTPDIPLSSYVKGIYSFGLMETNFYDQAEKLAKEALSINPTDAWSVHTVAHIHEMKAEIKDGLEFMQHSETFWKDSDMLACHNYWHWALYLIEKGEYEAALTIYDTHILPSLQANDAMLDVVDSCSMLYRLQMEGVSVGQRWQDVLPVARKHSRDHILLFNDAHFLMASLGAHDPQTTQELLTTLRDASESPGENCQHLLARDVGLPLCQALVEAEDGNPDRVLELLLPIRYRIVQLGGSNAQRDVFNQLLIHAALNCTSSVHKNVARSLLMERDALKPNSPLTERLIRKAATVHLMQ
How it was run: as §1

[4] = target: T4, CPD Carboxypeptidase D (O75976) (Homo sapiens, UniProt O75976); details: SILAC H/L, MDA-MB-231
T4 construct: In Situ Labelling of Cells with Hydrazine Probes for MS Experiments; endogenous in cells; host or cells: HEK293T and/or MDA-MB-231
How it was run: as §1

[5] = target: T5, ERAP1 Endoplasmic reticulum aminopeptidase (Q9NZ08) (Homo sapiens, UniProt Q9NZ08); details: SILAC H/L, MDA-MB-231
T5 construct: endogenous in cells; host or cells: HEK293T or MDA-MB-231
T5 sequence (Q9NZ08 whole entry): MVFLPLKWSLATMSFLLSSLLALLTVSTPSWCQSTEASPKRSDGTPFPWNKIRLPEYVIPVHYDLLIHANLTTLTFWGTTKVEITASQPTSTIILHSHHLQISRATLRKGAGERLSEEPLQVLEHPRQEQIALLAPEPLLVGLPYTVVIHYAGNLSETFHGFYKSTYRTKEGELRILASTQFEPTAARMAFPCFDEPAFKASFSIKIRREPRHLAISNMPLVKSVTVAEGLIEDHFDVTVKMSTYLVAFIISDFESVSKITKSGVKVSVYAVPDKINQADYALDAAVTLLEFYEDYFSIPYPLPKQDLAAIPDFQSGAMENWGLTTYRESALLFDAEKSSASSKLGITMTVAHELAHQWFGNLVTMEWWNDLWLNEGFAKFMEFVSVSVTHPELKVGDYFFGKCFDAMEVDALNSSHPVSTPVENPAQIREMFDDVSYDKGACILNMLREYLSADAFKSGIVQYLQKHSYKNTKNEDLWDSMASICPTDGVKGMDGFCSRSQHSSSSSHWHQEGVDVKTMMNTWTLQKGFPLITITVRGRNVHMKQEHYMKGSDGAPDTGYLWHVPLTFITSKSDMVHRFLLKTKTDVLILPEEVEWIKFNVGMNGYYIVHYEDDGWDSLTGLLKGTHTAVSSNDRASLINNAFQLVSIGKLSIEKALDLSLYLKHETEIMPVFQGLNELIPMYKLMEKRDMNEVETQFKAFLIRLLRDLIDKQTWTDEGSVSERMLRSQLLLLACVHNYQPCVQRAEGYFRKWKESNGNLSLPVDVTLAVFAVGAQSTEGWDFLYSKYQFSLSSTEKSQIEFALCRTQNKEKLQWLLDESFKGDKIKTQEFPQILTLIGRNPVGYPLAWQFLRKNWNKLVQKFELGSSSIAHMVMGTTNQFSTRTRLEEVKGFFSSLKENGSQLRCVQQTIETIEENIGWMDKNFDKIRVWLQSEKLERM
How it was run: as §1

[6] = target: T6, ACOX3 Peroxisomal acylcoenzyme A oxidase 3 (O15254) (Homo sapiens, UniProt O15254); details: SILAC H/L, MDA-MB-231
T6 construct: endogenous in cells; host or cells: HEK293T or MDA-MB-231
T6 sequence (O15254 whole entry): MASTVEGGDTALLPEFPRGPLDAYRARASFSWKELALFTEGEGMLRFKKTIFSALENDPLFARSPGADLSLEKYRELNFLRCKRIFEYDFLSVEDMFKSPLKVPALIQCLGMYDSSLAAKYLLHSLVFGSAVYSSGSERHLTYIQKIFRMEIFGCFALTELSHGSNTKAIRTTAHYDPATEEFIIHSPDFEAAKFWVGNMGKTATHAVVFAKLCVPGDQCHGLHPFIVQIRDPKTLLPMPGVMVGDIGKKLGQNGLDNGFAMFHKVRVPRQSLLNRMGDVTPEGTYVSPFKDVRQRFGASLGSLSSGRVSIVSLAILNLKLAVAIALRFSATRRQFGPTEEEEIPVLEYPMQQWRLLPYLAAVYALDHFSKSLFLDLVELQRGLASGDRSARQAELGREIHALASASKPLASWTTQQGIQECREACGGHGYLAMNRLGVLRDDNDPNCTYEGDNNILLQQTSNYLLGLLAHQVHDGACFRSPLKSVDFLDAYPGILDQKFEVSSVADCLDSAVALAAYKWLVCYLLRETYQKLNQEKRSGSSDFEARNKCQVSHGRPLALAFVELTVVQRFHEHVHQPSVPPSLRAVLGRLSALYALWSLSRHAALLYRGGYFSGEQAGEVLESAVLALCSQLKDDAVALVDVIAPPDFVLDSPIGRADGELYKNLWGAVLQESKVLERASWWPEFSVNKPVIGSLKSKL
How it was run: as §1

[7] = target: T7, PHF8 Histone lysine demethylase PHF8 (Q9UPP1) (Homo sapiens, UniProt Q9UPP1); details: SILAC H/L, HEK293T
T7 construct: In Situ Labelling of Cells with Hydrazine Probes for MS Experiments; endogenous in cells
T7 sequence (Q9UPP1 whole entry): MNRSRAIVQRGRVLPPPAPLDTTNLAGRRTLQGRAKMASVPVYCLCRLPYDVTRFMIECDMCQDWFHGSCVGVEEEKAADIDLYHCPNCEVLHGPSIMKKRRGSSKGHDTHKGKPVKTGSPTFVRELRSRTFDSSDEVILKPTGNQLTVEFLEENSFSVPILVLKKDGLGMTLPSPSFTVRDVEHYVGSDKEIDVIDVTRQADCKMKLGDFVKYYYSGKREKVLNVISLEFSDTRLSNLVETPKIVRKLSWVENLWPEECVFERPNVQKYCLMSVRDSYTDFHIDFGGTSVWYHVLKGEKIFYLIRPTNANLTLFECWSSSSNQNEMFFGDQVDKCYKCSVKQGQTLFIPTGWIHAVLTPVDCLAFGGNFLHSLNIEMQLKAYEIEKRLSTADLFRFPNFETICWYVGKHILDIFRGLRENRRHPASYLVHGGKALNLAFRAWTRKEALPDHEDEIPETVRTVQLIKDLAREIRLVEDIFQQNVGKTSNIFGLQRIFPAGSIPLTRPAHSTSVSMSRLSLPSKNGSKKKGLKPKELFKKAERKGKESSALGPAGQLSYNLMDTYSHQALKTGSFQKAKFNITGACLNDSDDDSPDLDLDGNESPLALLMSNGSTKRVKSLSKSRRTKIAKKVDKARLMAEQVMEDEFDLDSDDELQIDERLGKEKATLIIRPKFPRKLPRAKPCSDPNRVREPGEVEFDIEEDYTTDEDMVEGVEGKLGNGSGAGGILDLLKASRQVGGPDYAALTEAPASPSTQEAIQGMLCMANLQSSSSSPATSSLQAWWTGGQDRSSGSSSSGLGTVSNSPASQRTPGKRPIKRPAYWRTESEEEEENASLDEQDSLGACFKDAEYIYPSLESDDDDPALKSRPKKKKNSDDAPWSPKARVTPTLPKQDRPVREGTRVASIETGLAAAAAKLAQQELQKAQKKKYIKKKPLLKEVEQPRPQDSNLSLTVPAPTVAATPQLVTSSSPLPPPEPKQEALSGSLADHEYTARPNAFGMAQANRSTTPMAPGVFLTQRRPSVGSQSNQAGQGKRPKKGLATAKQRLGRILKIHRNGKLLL
How it was run: as §1

[8] = target: T8, PXDN Peroxidasin homolog (Q92626) (Homo sapiens, UniProt Q92626); details: SILAC H/L, MDA-MB-231
T8 construct: In Situ Labelling of Cells with Hydrazine Probes for MS Experiments; endogenous in cells; host or cells: HEK293T and/or MDA-MB-231
How it was run: as §1

[9] = target: T9, CYP27A1 Sterol 26hydroxylase, mitochondrial (Q02318) (Homo sapiens, UniProt Q02318); details: SILAC H/L, MDA-MB-231
T9 construct: endogenous in cells; host or cells: HEK293T or MDA-MB-231
T9 sequence (Q02318 34-531): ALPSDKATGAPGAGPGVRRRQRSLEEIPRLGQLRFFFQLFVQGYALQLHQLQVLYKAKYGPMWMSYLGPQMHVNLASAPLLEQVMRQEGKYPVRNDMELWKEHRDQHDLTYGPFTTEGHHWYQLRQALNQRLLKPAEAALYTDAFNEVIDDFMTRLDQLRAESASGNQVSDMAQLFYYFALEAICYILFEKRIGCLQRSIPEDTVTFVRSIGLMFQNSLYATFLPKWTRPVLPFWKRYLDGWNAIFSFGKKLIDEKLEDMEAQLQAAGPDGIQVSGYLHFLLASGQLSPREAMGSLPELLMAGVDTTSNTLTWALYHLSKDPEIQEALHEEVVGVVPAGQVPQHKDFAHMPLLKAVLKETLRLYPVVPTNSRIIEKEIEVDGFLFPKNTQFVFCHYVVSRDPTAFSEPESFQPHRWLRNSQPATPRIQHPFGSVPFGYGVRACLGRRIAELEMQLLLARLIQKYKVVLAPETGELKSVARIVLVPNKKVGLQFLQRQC
How it was run: as §1

[10] = target: T10, MMP14 Matrix metalloproteinase14 (P50281) (Homo sapiens, UniProt P50281); details: SILAC H/L, MDA-MB-231
T10 construct: endogenous in cells; host or cells: HEK293T or MDA-MB-231
How it was run: as §1

[11] = target: T11, HMOX2 Heme oxygenase 2 (P30519) (Homo sapiens, UniProt P30519); details: SILAC H/L, HEK293T
T11 construct: In Situ Labelling of Cells with Hydrazine Probes for MS Experiments; endogenous in cells; host or cells: HEK293T and/or MDA-MB-231
T11 sequence (P30519 whole entry): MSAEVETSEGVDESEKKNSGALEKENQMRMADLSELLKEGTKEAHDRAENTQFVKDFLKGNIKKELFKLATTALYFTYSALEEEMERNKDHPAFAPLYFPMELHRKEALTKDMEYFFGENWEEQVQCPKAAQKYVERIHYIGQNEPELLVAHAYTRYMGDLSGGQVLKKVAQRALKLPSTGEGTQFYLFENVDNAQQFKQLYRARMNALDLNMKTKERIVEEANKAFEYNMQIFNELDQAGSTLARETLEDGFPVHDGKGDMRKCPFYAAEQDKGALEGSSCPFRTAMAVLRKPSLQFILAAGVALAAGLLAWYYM
How it was run: as §1

[12] = target: T12, RRM2 Ribonucleosidediphosphate reductase (P31350) (Homo sapiens, UniProt P31350); details: SILAC H/L, HEK293T
T12 construct: In Situ Labelling of Cells with Hydrazine Probes for MS Experiments; endogenous in cells; host or cells: HEK293T and/or MDA-MB-231
T12 sequence (P31350 whole entry): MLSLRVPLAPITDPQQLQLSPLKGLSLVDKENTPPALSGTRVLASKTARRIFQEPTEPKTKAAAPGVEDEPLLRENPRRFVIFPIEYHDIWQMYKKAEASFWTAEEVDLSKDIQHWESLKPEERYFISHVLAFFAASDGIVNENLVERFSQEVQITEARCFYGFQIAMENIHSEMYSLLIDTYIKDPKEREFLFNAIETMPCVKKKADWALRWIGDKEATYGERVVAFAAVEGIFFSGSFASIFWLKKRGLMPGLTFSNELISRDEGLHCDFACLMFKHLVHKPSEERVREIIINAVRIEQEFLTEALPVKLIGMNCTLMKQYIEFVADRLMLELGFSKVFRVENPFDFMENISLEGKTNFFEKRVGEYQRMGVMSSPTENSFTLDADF
How it was run: as §1

[13] = target: T13, CYP51A1 Lanosterol 14alpha demethylase (Q16850) (Homo sapiens, UniProt Q16850); details: SILAC H/L, HEK293T
T13 construct: In Situ Labelling of Cells with Hydrazine Probes for MS Experiments; endogenous in cells; host or cells: HEK293T and/or MDA-MB-231
T13 sequence (Q16850 whole entry): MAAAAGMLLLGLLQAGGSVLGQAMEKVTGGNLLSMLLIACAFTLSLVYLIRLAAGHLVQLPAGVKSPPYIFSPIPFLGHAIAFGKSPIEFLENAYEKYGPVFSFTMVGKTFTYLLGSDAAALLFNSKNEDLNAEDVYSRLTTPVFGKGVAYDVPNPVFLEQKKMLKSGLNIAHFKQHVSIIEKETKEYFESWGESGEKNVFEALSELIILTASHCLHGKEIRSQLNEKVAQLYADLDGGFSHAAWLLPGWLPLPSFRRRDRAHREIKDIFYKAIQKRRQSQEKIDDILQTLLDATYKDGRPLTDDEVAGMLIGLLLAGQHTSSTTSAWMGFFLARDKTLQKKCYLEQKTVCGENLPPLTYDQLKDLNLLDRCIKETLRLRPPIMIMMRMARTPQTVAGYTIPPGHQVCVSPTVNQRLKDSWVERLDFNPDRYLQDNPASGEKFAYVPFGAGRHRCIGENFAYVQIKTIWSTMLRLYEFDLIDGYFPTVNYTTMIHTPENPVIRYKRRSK
How it was run: as §1

[14] = target: T14, HEXB Betahexosaminidase subunit beta (P07686) (Homo sapiens, UniProt P07686); details: SILAC H/L, MDA-MB-231
T14 construct: endogenous in cells; host or cells: HEK293T or MDA-MB-231
How it was run: as §1

enrichment ratioavg ([1]; probe 2 1 mM 0.5 h vs probe 4): 20 | competition ratioavg ([1]; probe 2 vs probe 2+10x probe 4): 3 | enrichment ratioavg ([2]; probe 2 1 mM 0.5 h vs probe 4): 20 | competition ratioavg ([2]; probe 2 vs probe 2+10x probe 4): 2 | enrichment ratioavg ([3]; probe 2 1 mM 0.5 h vs probe 4): 14 | competition ratioavg ([3]; probe 2 vs probe 2+10x probe 4): 2 | enrichment ratioavg ([4]; probe 2 1 mM 0.5 h vs probe 4): 20 | competition ratioavg ([4]; probe 2 vs probe 2+10x probe 4): 15 | enrichment ratioavg ([5]; probe 2 1 mM 0.5 h vs probe 4): 8 | competition ratioavg ([5]; probe 2 vs probe 2+10x probe 4): 4 | enrichment ratioavg ([6]; probe 2 1 mM 0.5 h vs probe 4): 20 | competition ratioavg ([6]; probe 2 vs probe 2+10x probe 4): 1 | enrichment ratioavg ([7]; probe 2 1 mM 0.5 h vs probe 4): 20 | competition ratioavg ([7]; probe 2 vs probe 2+10x probe 4): 15 | enrichment ratioavg ([8]; probe 2 1 mM 0.5 h vs probe 4): 20 | competition ratioavg ([8]; probe 2 vs probe 2+10x probe 4): 5 | enrichment ratioavg ([9]; probe 2 1 mM 0.5 h vs probe 4): 20 | competition ratioavg ([9]; probe 2 vs probe 2+10x probe 4): 3 | enrichment ratioavg ([10]; probe 2 1 mM 0.5 h vs probe 4): 10 | competition ratioavg ([10]; probe 2 vs probe 2+10x probe 4): 3 | enrichment ratioavg ([11]; probe 2 1 mM 0.5 h vs probe 4): 20 | competition ratioavg ([11]; probe 2 vs probe 2+10x probe 4): 5 | enrichment ratioavg ([12]; probe 2 1 mM 0.5 h vs probe 4): 13 | competition ratioavg ([12]; probe 2 vs probe 2+10x probe 4): 1 | enrichment ratioavg ([13]; probe 2 1 mM 0.5 h vs probe 4): 14 | competition ratioavg ([13]; probe 2 vs probe 2+10x probe 4): 6 | enrichment ratioavg ([14]; probe 2 1 mM 0.5 h vs probe 4): 11 | competition ratioavg ([14]; probe 2 vs probe 2+10x probe 4): 3
SMILES: C#CCCNC(=O)c1ccc(NN)cc1.Cl [probe 2, N-(but-3-yn-1-yl)-4-hydrazinylbenzamide hydrochloride]
